Test results as given in patent US20060084688A1, “Aromatic sulfone hydroxamic acid metalloprotease inhibitor” (priority 1997, published 2006).
pIC50: −log10 of the molar value. Where a name gives a salt, the structure may show the parent alone. Read-outs that look alike come from different tables or passages of the source.

How the values were obtained:
Assay in all cases: biochemical
recombinant human MMP-2 = target: T1, recombinant human MMP-2 (Homo sapiens, UniProt P08253)
T1 sequence (P08253 110-660): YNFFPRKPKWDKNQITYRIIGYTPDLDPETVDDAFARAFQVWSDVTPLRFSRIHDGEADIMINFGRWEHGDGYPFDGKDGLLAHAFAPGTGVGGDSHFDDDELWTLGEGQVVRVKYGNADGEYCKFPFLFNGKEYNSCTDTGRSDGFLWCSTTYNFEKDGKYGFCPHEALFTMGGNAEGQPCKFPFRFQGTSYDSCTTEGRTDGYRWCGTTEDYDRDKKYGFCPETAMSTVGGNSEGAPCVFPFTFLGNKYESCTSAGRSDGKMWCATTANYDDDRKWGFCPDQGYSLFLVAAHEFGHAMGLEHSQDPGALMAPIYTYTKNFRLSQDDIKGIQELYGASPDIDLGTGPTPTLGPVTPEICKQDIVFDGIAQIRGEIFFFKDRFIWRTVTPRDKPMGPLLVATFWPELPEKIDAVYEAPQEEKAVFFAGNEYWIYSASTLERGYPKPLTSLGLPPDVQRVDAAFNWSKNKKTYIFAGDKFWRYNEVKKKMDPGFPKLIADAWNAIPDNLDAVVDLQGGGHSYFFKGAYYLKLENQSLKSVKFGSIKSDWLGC

recombinant human MMP-1 = target: T2, recombinant human MMP-1 (Homo sapiens, UniProt P03956)
T2 construct: made in house; host or cells: transfected HT-1080 cells
T2 sequence (P03956 100-469): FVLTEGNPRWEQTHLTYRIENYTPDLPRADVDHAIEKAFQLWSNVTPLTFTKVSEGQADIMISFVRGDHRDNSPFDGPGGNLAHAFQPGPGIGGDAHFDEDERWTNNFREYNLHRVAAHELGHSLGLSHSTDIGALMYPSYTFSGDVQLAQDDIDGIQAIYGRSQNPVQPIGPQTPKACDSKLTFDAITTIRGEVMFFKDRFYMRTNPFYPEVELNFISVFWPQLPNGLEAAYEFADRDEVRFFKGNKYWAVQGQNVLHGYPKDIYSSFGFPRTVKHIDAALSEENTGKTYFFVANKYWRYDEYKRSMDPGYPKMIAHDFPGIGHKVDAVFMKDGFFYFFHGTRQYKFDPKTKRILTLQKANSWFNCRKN

recombinant human MMP-13 = recombinant human MMP-13 (Homo sapiens, UniProt P45452)

SMILES | pIC50 (recombinant human MMP-2; room temperature, pH 7.5, 1 percent DMSO, 4 μM MCA peptide substrate, no asterisk) | pIC50 (recombinant human MMP-1) | pIC50 (recombinant human MMP-13; room temperature, pH 7.5, 1 percent DMSO, 4 μM MCA peptide substrate) | pIC50 (recombinant human MMP-2; Inhibition Table B) | pIC50 (recombinant human MMP-1; Inhibition Table B) | pIC50 (recombinant human MMP-13; Inhibition Table B)
O=C(NO)C1(S(=O)(=O)c2ccc(SC3CCCCC3)cc2)CCN(C2CC2)CC1 [Example 21] | 8.89 | < 5.00 | 9.22 | – | – | –
C#CCN1CCC(C(=O)O)(S(=O)(=O)c2ccc(Sc3ccc(Cl)cc3)cc2)CC1 [Example 44a, 4-[[4-(4-chlorophenyl)thio]phenyl)sulfonyl]-1-(propynyl)-4-piperidinecarboxylic acid, monohydrochloride] | – | – | – | > 10.00 | < 5.00 | 9.70
C#CCN1CCC(C(=O)NO)(S(=O)(=O)c2ccc(Sc3ccc(Cl)cc3)cc2)CC1 [Example 44b, 4-[[4-(4-chlorophenyl)thio]phenyl]sulfonyl]-N-hydroxy-1-(propynyl)-4-piperidinecarboxamide, monohydrochloride] | – | – | – | 5.10 | < 5.00 | < 5.00
C#CCN1CCC(C(=O)NO)(S(=O)(=O)c2ccc([S+]([O-])c3ccccc3)cc2)CC1 (stereo not drawn) [Example 47b] | – | – | – | 5.52 | < 5.00 | 5.51
O=C(O)C1CCN(c2ccc(S(=O)(=O)C3(C(=O)NO)CCOCC3)cc2)CC1 [Example 129] | – | – | – | < 7.00 | < 5.00 | 6.00
CNC(=O)C1CCN(c2ccc(S(=O)(=O)C3(C(=O)NO)CCOCC3)cc2)CC1 [Example 130] | – | – | – | 7.24 | < 5.00 | 7.34
O=C(C1CCN(c2ccc(S(=O)(=O)C3(C(=O)NO)CCOCC3)cc2)CC1)N1CCOCC1 [Example 131] | – | – | – | 6.19 | < 5.00 | 8.00
O=C(NCCO)C1CCN(c2ccc(S(=O)(=O)C3(C(=O)NO)CCOCC3)cc2)CC1 [Example 132] | – | – | – | 6.38 | < 5.00 | –
NCCCNC(=O)C1CCN(c2ccc(S(=O)(=O)C3(C(=O)NO)CCOCC3)cc2)CC1 [Example 133] | – | – | – | 7.05 | < 5.00 | 7.57
CCNC(=O)C1CCN(c2ccc(S(=O)(=O)C3(C(=O)NO)CCOCC3)cc2)CC1 [Example 134] | – | – | – | 7.54 | 5.05 | 8.40
O=C(O)CNC(=O)C1CCN(c2ccc(S(=O)(=O)C3(C(=O)NO)CCOCC3)cc2)CC1 [Example 135] | – | – | – | 6.30 | < 5.00 | 7.19
O=C(NO)C1CCN(c2ccc(S(=O)(=O)C3(C(=O)NO)CCOCC3)cc2)CC1 [Example 137] | – | – | – | 6.52 | < 5.00 | 7.46
O=C(O)C1CCCN(c2ccc(S(=O)(=O)C3(C(=O)NO)CCOCC3)cc2)C1 (stereo not drawn) [Example 138] | – | – | – | < 7.00 | < 5.00 | < 7.00
CNC(=O)C1CCCN(c2ccc(S(=O)(=O)C3(C(=O)NO)CCOCC3)cc2)C1 (stereo not drawn) [Example 139] | – | – | – | – | < 5.00 | 7.60
O=C(C1CCCN(c2ccc(S(=O)(=O)C3(C(=O)NO)CCOCC3)cc2)C1)N1CCOCC1 (stereo not drawn) [Example 140] | – | – | – | – | < 5.00 | 7.22
O=C(NCCO)C1CCCN(c2ccc(S(=O)(=O)C3(C(=O)NO)CCOCC3)cc2)C1 (stereo not drawn) [Example 141] | – | – | – | < 7.00 | < 5.00 | < 7.00
NCCCNC(=O)C1CCCN(c2ccc(S(=O)(=O)C3(C(=O)NO)CCOCC3)cc2)C1 (stereo not drawn) [Example 142] | – | – | – | 6.22 | < 5.00 | 7.15
CCNC(=O)C1CCCN(c2ccc(S(=O)(=O)C3(C(=O)NO)CCOCC3)cc2)C1 (stereo not drawn) [Example 143] | – | – | – | 6.05 | < 5.00 | 7.62
O=C(O)CNC(=O)C1CCCN(c2ccc(S(=O)(=O)C3(C(=O)NO)CCOCC3)cc2)C1 (stereo not drawn) [Example 144] | – | – | – | 6.10 | < 5.00 | 7.51

SMILES | pIC50 (recombinant human MMP-2; room temperature, pH 7.5, 1 percent DMSO, 4 μM MCA peptide substrate, no asterisk) | pIC50 (recombinant human MMP-1) | pIC50 (recombinant human MMP-13; room temperature, pH 7.5, 1 percent DMSO, 4 μM MCA peptide substrate) | pIC50 (recombinant human MMP-2; Inhibition Table B) | pIC50 (recombinant human MMP-1; Inhibition Table B) | pIC50 (recombinant human MMP-13; Inhibition Table B)
O=C(NO)C1CCCN(c2ccc(S(=O)(=O)C3(C(=O)NO)CCOCC3)cc2)C1 (stereo not drawn) [Example 146] | – | – | – | 6.19 | < 5.00 | 7.49
CN(C)C(=O)C1CCN(c2ccc(S(=O)(=O)C3(C(=O)NO)CCOCC3)cc2)CC1 [Example 147] | – | – | – | 5.57 | < 5.00 | 7.51
CCN(CC)C(=O)C1CCN(c2ccc(S(=O)(=O)C3(C(=O)NO)CCOCC3)cc2)CC1 [Example 148] | – | – | – | 5.62 | < 5.00 | 7.51
O=C(C1CCN(c2ccc(S(=O)(=O)C3(C(=O)NO)CCOCC3)cc2)CC1)N1CCCCC1 [Example 149] | – | – | – | 5.80 | < 5.00 | 7.81
CN1CCN(C(=O)C2CCN(c3ccc(S(=O)(=O)C4(C(=O)NO)CCOCC4)cc3)CC2)CC1 [Example 150] | – | – | – | 5.89 | < 5.00 | 7.84
O=C(C1CCN(c2ccc(S(=O)(=O)C3(C(=O)NO)CCOCC3)cc2)CC1)N1CCNCC1 [Example 151] | – | – | – | 5.82 | < 5.00 | 7.46
CCOC(=O)C1CCN(C(=O)C2CCN(c3ccc(S(=O)(=O)C4(C(=O)NO)CCOCC4)cc3)CC2)CC1 [Example 152] | – | – | – | 5.62 | < 5.00 | 7.78
CCOC(=O)C1CCCN(C(=O)C2CCN(c3ccc(S(=O)(=O)C4(C(=O)NO)CCOCC4)cc3)CC2)C1 (stereo not drawn) [Example 153] | – | – | – | 5.57 | < 5.00 | 7.87
CCOC(=O)C1CCCCN1C(=O)C1CCN(c2ccc(S(=O)(=O)C3(C(=O)NO)CCOCC3)cc2)CC1 (stereo not drawn) [Example 154] | – | – | – | 5.80 | < 5.00 | 7.57
CN(C)C(=O)C1CCCN(c2ccc(S(=O)(=O)C3(C(=O)NO)CCOCC3)cc2)C1 (stereo not drawn) [Example 155] | – | – | – | < 6.00 | < 5.00 | < 7.00
O=C(C1CCCN(c2ccc(S(=O)(=O)C3(C(=O)NO)CCOCC3)cc2)C1)N1CCCCC1 (stereo not drawn) [Example 156] | – | – | – | 5.48 | < 5.00 | 7.56
C[C@@H]1CN(C(=O)C2CCCN(c3ccc(S(=O)(=O)C4(C(=O)NO)CCOCC4)cc3)C2)C[C@H](C)O1 (stereo partly drawn) [Example 169] | – | – | – | < 6.00 | – | < 7.00
O=C(C1CCCN(c2ccc(S(=O)(=O)C3(C(=O)NO)CCOCC3)cc2)C1)N1CCCC2CCCCC21 (stereo not drawn) [Example 170] | – | – | – | < 6.00 | – | < 7.00
N[C@H]1CCN(C(=O)C2CCN(c3ccc(S(=O)(=O)C4(C(=O)NO)CCOCC4)cc3)CC2)C1 [Example 175] | – | – | – | < 6.00 | – | < 7.00
C[C@@H]1CN(C(=O)C2CCN(c3ccc(S(=O)(=O)C4(C(=O)NO)CCOCC4)cc3)CC2)C[C@H](C)O1 [Example 176] | – | – | – | 6.40 | – | 7.60
O=C(C1CCN(c2ccc(S(=O)(=O)C3(C(=O)NO)CCOCC3)cc2)CC1)N1CCCC1 [Example 179] | – | – | – | 6.36 | < 5.00 | –
CCCCNC(=O)C1CCN(c2ccc(S(=O)(=O)C3(C(=O)NO)CCOCC3)cc2)CC1 [Example 181] | – | – | – | 6.92 | – | 8.21
O=C(NC1CCCCCC1)C1CCN(c2ccc(S(=O)(=O)C3(C(=O)NO)CCOCC3)cc2)CC1 [Example 194] | – | – | – | 6.78 | – | 8.10
O=C(NCc1ccncc1)C1CCN(c2ccc(S(=O)(=O)C3(C(=O)NO)CCOCC3)cc2)CC1 [Example 195] | – | – | – | – | – | 7.84
